This is an account of results in US9359371B2, “Bicyclic substituted pyrimidine compounds” (Xuanzhu Pharma Co., Ltd., priority 2012, dated 2016).

Each structure is given as a SMILES string.

One series addresses PDE-5A enzyme (Homo sapiens (Human), UniProt O76074). Briefly: Caliper Mobility-Shift PDE-5A Assay. Format: biochemical. The following applies: Table 1; Avanafil value is the control.
For another series, the target named is PDE-11 (Homo sapiens (Human), UniProt Q9HCR9). Briefly: Caliper Mobility-Shift PDE-11 Assay. The following applies: Table 4; maximum final concentration 10 μM. The series is classed as biochemical. The procedure: Experiment 4: Measurement of Pharmacological Activity on PDE-11 Enzyme In Vitro
Method: enzyme assay, Caliper Mobility-Shift PDE-11 Assay
The test compound was accurately weighed, dissolved in DMSO, mixed thoroughly and formulated into 10 mM. The above stock solution was diluted to a concentration of 0.5 mM with DMSO, and then was gradiently diluted by a dilution factor of 3.162, resulting in 11 concentrations in total.
To a 96-well plate, 20 μL of 10 μM FL-cGMP as the substrate was added; then 1 μL solution of the compound in DMSO or DMSO solution without compound was added; and then 29 μL of 0.28 ng/μL PDE-11 enzyme buffer (100 mM Hepes pH 7.5, 5 mM MgCl2, 0.002% Brij-35) was added. The maximum final concentration of the compound was 10 μM. The plate was incubated at 30° C. for 1 h, and 20 μL of 70 μM EDTA was then added to stop the reaction. 26 μL of solution of each well was transferred to a 384-well plate. The conversion was read on a EZ reader II. The Inhibition rate was calculated by the formula below, and used to calculate IC50 by Prism 5.0 Inhibition rate=[Conversion (ZPE)−Conversion (sample)]×100/[Conversion (ZPE)−Conversion (HPE)]
Note: HPE: control without enzyme; ZPE: control without compound

Series [1] has as its system length of New Zealand rabbit's penis. Briefly: Pharmacological activity in vivo (intravenous injection), rabbit penis length. More on the design: species or system New Zealand rabbits. The following applies: Table 5; iv 10 mg/kg, 1 mL/kg; sodium nitroprussiate 0.2 mg/kg iv 5 min after; 0-120 min. Here is the method: Experiment 5: Assay of Pharmacological Activity In Vivo (Intravenous Injection)
After accommodating with the environment, the New Zealand rabbits were grabbed everyday. When the rabbits were accustomed to the repeated grabbing, drug administration was began. The animals were randomly divided into groups by weight. The test compounds were separately dissolved in menstruum. […] The corresponding test compounds were injected into the auricular veins of animals of each group. The dosage of the compounds in Table 5 was 10 mg/kg, and the administration volume was 1 mL/kg. The dosage of the compounds in Table 6 was 10 mg/kg, and the administration volume was 2 mL/kg. 0.2 mg/kg sodium nitroprussiate was intravenously injected into the rabbits 5 min after the administration of the test compounds, with the administration volume of 0.5 mL/kg.
The length of the rabbit's penis was measured with a digital caliper before and 10, 15, 30, 50, 60, 90 and 120 min after the administration. Touch of the rabbit's penis by the caliper was avoided during the measurements.

Series [2] can be described thus: Pharmacokinetics (PK) in SD rats. The settings on record: rat, 1 mg/kg. Format: in vivo.
Where [3] appears, read: SD, plasma, po, intragastric administration.
[4] abbreviates: SD, plasma, intravenous injection.

Sequence of PDE-11 (Q9HCR9 whole entry): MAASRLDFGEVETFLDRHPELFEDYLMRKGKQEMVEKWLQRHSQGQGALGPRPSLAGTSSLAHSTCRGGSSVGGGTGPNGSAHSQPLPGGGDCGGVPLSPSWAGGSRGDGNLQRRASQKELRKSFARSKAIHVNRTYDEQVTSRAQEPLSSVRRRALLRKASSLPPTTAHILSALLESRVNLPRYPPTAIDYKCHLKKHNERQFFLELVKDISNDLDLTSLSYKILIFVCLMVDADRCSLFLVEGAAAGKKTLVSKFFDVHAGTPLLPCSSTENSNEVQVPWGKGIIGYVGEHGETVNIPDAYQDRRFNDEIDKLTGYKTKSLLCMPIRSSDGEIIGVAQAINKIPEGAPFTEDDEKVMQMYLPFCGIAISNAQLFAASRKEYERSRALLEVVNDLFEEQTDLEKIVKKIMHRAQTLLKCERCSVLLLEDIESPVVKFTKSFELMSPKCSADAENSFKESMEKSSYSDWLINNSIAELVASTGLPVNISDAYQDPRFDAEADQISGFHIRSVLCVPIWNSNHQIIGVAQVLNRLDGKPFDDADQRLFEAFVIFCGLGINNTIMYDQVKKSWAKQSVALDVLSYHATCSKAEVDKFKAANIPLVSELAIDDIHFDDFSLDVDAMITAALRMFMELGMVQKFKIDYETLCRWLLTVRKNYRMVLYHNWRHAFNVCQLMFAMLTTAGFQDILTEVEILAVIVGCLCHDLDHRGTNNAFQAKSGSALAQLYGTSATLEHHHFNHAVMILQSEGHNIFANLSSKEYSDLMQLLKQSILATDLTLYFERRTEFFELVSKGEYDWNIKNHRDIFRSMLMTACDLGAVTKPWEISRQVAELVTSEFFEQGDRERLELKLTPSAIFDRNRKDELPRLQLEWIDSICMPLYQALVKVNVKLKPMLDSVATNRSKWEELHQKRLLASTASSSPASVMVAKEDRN

Regarding `COc1ccc(CNc2nc(N3CC4CC4C3)ncc2C(=O)N[C@H]2CC[C@H](O)CC2)cc1Cl` (stereo partly drawn) [Compound 11, 2-(3-azabicyclo[3.1.0]hexan-3-yl)-4-((3-chloro-4-methoxybenzyl)amino)-N-(trans-4-hydroxycyclohexyl)pyrimidine-5-formamide], at PDE-5A enzyme, the IC50 (in general, the concentration needed to halve the response being measured) came out at 4.02 nM. Also, at PDE-11, the IC50 is above 10000 nM. Further, the “AUC of penis length” value in series [1] is recorded as 323.3 mm × min. Also, in series [2] (setting [3]), the AUC(0-inf) (usually total exposure, with the tail of the curve extrapolated) was 604 ng·h/mL; the Cmax – broadly, the maximum level reached in the sampled fluid or tissue – came out at 133 ng/mL; the time to peak (Tmax) (in general, the time at which the peak concentration occurs) amounted to 1 h; the half-life – broadly, the time needed for the level to fall by half in the phase considered – is 2.03 h. Further, the bioavailability – broadly, the share of a dose that reaches the circulation, judged against a reference dose that is usually intravenous – in series [2] (SD, plasma, po, intragastric administration, read-out: F % (absolute bioavailability)) was 70.4%. Besides, in series [2] (setting [4]), the AUC(0-inf) worked out at 858 ng·h/mL and the half-life is 2.4 h. Further, in series [2] (intragastric administration), the AUCinf entry is given as “higher exposure quality (AUC)”; the “F % (absolute bioavailability)” value was “higher exposure quality (AUC) and bioavailability than Compound WO-88”. In addition, in series [2] (intravenous injection), the AUCinf entry is “higher exposure quality (AUC)”, the Cl_obs was 19.7 mL/min/kg, the T1/2 result is on record as “longer half-life” and the Vss_obs is recorded as 3.44 L/kg.
